According to patent publication US7282507B2, “Indole derivatives as selective androgen receptor modulators (SARMS)” (Janssen Pharmaceutica N.V., priority 2004, dated 2007):

Assays:
[1] = molecular target: T1, androgen receptor LBD (Panvera) (Rattus norvegicus, UniProt P15207); assay: Androgen Receptor Filtration Binding Assay (PANVERA); settings: [3H] R1881 tracer 0.5 nM; read-out: IC50 (nM), Androgen Receptor Binding (Panvera)
T1 construct: 5 pmol androgen receptor LBD (Panvera); purchased Panvera
T1 sequence (P15207 651-882 limits assumed): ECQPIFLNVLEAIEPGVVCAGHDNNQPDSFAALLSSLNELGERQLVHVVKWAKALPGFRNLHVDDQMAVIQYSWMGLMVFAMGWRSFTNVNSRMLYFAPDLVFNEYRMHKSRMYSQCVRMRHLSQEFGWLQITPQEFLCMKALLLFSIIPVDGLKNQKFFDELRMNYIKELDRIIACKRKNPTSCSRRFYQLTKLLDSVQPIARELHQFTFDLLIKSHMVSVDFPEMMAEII
Protocol: (§1) The assay was run on a 96 well plate with each well filled with a total reaction volume 150 μL, of a solution containing 5 pmol androgen receptor LBD (Panvera) or 30 μL of freshly prepared rat cytosol, 0.5 nM [^3H] […] (TED buffer contains 10 mM Tris.HCl pH 7.4, 1 mM sodium molybdate, 1.5 mM EDTA, 1 mM DTT and 10% (v/v) glycerol.)
(§2) On day one, the solution containing receptor, tracer and TED buffer was distributed into a 96 well plate. Diluted test compound or control vehicle was then added to individual wells and the plate incubated at 4° C. overnight.
(§3) On day two, to each well was then added 20 μL human γ-globulin (ICN 823102), prepared at 25 mg/ml in TE pH 8.0, and 55 μL 40% polyethylene glycol 8000 (J T Baker U222-08), prepared in TE pH 8.0. The plate was incubated at 4° C. for 60 minutes. During incubation, the harvester was rinsed with 10% PEG 8000, prepared in TE pH 8.0, and a GF/C Unifilter-96 was pre-wet with 10% PEG. The binding reaction was filtered, the retentate was washed three times with 10% PEG and dried under vacuum for a couple of minutes, then dried at 50° C. for 5 min and the plate was bottom sealed. Next, 25 μL of Microscint-20 (Packard) was added to the filter wells and the plate was top sealed. The plate wells were then counted on a TopCount (Packard).
Counts per well were measured and IC50s determined by linear regression.

[2] = molecular target: T2, androgen receptor (rat ventral prostate cytosol) (Rattus norvegicus, UniProt P15207); assay: Androgen Receptor Binding Using Rat Ventral Prostate Cytosol; settings: for % Inhibition, Androgen Receptor Binding (Rat Cytosol) / inhibition at 1 µM: Concentration 1000 nM; for inhibition at 1 µM: read-out: % Inhibition, Androgen Receptor Binding (Rat Cytosol)
T2 construct: from tissue; host or cells: ventral prostate cytosol of castrated male Sprague Dawley or Wistar rats
T2 sequence (P15207 1-902): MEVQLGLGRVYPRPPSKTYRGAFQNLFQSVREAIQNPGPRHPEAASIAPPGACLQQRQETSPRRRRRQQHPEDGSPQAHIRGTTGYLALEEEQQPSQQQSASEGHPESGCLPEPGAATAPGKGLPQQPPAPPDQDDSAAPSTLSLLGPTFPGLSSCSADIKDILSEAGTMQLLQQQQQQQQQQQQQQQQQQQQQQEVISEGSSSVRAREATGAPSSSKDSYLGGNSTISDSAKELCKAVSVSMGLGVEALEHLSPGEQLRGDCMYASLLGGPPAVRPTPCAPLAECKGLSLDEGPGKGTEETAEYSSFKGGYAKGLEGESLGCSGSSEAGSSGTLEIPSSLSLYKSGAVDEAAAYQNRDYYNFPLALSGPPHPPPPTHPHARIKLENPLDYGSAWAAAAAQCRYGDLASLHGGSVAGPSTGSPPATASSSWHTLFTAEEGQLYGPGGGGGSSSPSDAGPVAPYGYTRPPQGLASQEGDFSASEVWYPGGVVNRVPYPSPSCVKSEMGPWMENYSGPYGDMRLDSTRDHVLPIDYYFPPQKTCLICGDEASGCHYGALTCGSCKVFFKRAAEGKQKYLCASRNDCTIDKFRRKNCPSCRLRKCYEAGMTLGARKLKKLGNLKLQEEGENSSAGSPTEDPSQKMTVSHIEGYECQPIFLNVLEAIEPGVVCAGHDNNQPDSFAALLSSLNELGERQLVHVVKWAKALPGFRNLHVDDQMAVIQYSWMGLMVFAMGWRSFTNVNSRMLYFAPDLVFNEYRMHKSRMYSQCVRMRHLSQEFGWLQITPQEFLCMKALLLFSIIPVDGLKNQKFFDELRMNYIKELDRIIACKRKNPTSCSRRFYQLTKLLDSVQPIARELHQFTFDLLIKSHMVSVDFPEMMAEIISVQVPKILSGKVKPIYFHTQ
Protocol: as §1, §2, §3
Rat Prostate Cytosol Preparation:
Male Sprague Dawley or Wistar rats (Charles River, 200-300 g) were used for each preparation. The day before preparing the cytosol, the rats were castrated using standard surgical procedures.
The rats were euthanized by carbon dioxide asphyxiation. The rat prostates were quickly removed and placed on ice in pre-chilled, pre-weighed 50 mL plastic tubes. No more than five prostates were placed into one tube. The tubes were then weighed and the prostate tissue wet weights calculated.
To the chilled prostate tissue was then added […] of chilled homogenization buffer. The homogenization buffer was freshly prepared by mixing 10 mM Tris.HCl, pH 7.4, 1 mM sodium molybdate, 1.5 mM EDTA, 1 mM dithiothreitol, 10% (v/v) glycerol and 1% protease inhibitor cocktail (Sigma P 8340).
The prostate tissue was homogenized in a cold room using a pre-chilled Polytron PT3000 homogenizer (Brinkmann). Homogenization was performed at a speed setting of 20, three times for 10 sec bursts. The tubes containing the prostate tissue was kept on ice while homogenizing. The homogenate was allowed to rest on ice for 20 sec between bursts.
The homogenate was then placed into pre-chilled 3 mL polycarbonate ultracentrifuge tubes and centrifuged in the TLA-100 rotor of a TL-100 ultracentrifuge for 12 min at 100,000 rpm at 4° C. The resulting supernatant was stored in 1 mL aliquots at −80° C. until needed.
Binding to the androgen receptor was determined according to the protocol described in Example 86 using the above prepared rat cytosol.
% Inhibition was determined by testing dilutions of the test compound (usually duplicates of 10 μM) in the binding assay. Counts per well were measured and percents of inhibition determined. […] Counts per well were measured and IC50s determined by linear regression.

[3] = molecular target: T3, androgen receptor (AdEasy+rAR, COS-7 cells) (Rattus norvegicus, UniProt P15207); assay: COS-7 Whole-Cell Androgen Receptor Binding Assay, Adenovirus Transduction; settings: for inhibition at 3 µM: concentration of 3000 nM; for IC50: read-out: IC50 (nM), COS Binding
T3 construct: expressed in transfected cells; host or cells: COS-7 cells transduced with adenovirus AdEasy+rAR
T3 sequence (P15207 1-902): T2 sequence (P15207 1-902)
Protocol: COS-7 cells were plated in 96-well plates at 20,000 cells per well, in a solution of DMEM/F12 (GIBCO) containing 10% (v/v) charcoal-treated fetal bovine serum (Hyclone) and lacking phenol red. The cells were then incubated overnight at 37° C. in 5% (v/v) humidified CO2.
Test compound solutions were prepared by diluting the test compound in 100% (v/v) DMSO, if necessary.
Next, 1 mL of DMEM/F12 lacking phenol red was pipetted into each of the wells of a 2-mL 96-well assay block. […] The wells were carefully mixed by pipette.
In a 15 mL or 50 mL sterile centrifuge tube, a dilution in DMEM/F12 of the adenovirus AdEasy+rAR at a moi of 1:50 per well was prepared.
The medium was removed from the 96-well plates by inversion and the plates dried very briefly, inverted, on a sterile towel. As soon as possible after medium removal, 40 μL of the diluted test compound was added to each well, in duplicate. […] The plates were then incubated for 48 hours at 37° C. in 5% (v/v) humidified CO2.
The medium was removed from the above incubated plates by inversion and dried. Each well was then washed with 0.35 mL of 1× PBS. The PBS was then removed from the plates by inversion and the plates dried.
To each well was then added 50 μL of 0.5% (v/v) Triton X-100 (Sigma) in 1× PBS and the plates placed on a rotary shaker for 5 min. The contents of each well were then transferred to an OptiPlate-96 (Packard) scintillation plate. To each well was then added 0.2 mL of Microscint-20 (Packard) and the wells counted on a TopCount (Packard).
Percent inhibition was determined by testing dilutions of the test compound (usually duplicates of 10 μM) in the binding assay. Counts per well were measured and percents of inhibition determined. […] Counts per well were measured and IC50s determined by linear regression.

[4] = tested on: testosterone-enhanced ventral prostate and seminal vesicle weights; assay: Ventral Prostate and Seminal Vesicle Weight in vivo Assay; parameters: species or system rat; settings: immature castrated male Sprague Dawley rats, once daily for five days, usually orally 40 mg/kg, with testosterone propionate 2 mg/kg s.c. Note: key: 'active' if the non weight adjusted prostate weight was ≦40 mg or the % Inhibition prostate weight, body weight adjusted was ≧40% @ 2 mg/day dosage; ID50's, if determined, of ≦15 mg/day also indicated an 'active' compound; listed herein as 'inactive' as they did not meet the specified criteria defined above.
Procedure, shortened: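 Immature castrated male Sprague Dawley rats (~50 g) were dosed once daily for five days with compound, usually orally at 40 mg/kg in cyclodextrin or methylcellulose vehicle. Testosterone propionate was co-dosed subcutaneously at 2 mg/kg. On day six, ventral prostate and seminal vesicle wet weights were measured; activity was judged on prostate weight or body-weight-adjusted % inhibition.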

[5] = molecular target: T4, androgen receptor (AdEasy+rAR, L929 cells) (Rattus norvegicus, UniProt P15207); assay: L929 Androgen Receptor Functional Assay, Adenovirus Transduction; assay type: cell-based; settings: for inhibition at 3 µM: L929, antagonist testing with R1881, 3000 nM; for % Activity, L929 androgen receptor functional assay: agonist testing, 3000 nM
T4 construct: expressed in transfected cells; host or cells: L929 cells transduced with adenovirus AdEasy+rAR
T4 sequence (P15207 1-902): T2 sequence (P15207 1-902)
Procedure, shortened: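 L929 cells in phenol red-free, charcoal-stripped serum medium transduced with AdEasy+rAR (moi 1:500) and exposed 48 h at 37 °C to compound alone (agonist mode) or with R1881 (antagonist mode; 2.5 nM as the 2.5× dilution).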

## CC(O)(Sc1ccccc1)c1cc2cc([N+](=O)[O-])c(C(F)(F)F)cc2[nH]1 (racemic) [Compound 258]
[1]
  IC50: 2450 nM
[2]
  % Inhibition, Androgen Receptor Binding (Rat Cytosol): 35.4%

## CC(O)(CCl)c1cc2nc(C(F)(F)F)ccc2n1S(C)(=O)=O (stereo not drawn) [Compound 4]
[1]
  IC50: 7600 nM
[2]
  inhibition at 1 µM: 10.8%

## COC(=O)c1ccc2c(c1)cc(C(C)(O)CSc1ccc(F)cc1)n2S(C)(=O)=O (stereo not drawn) [Compound 98]
[1]
  IC50: 8500 nM
[2]
  inhibition at 1 µM: -31%

## CC(O)(CSc1ccc(Cl)cc1)c1cc2nc(C(F)(F)F)ccc2[nH]1 (racemic) [Compound 3]
[1]
  IC50: 26000 nM
[2]
  inhibition at 1 µM: 6.6%

## CC(O)(Sc1ccc(Cl)cc1)c1cc2cc(C#N)c(C(F)(F)F)cc2[nH]1 (racemic) [Compound 261]
[1]
  IC50: 1460 nM
[2]
  % Inhibition, Androgen Receptor Binding (Rat Cytosol): 14.05%

## CC(O)(c1cc2cc(C#N)c(C(F)(F)F)cc2[nH]1)S(=O)(=O)c1ccc(Cl)cc1 (racemic) [Compound 262]
[1]
  IC50: > 10000 nM
[2]
  % Inhibition, Androgen Receptor Binding (Rat Cytosol): −8.4%

## CC(O)(CSc1ccc(F)cc1)c1cc2nc(C(F)(F)F)ccc2[nH]1 (racemic) [Compound 5]
[1]
  IC50: 39000 nM
[2]
  inhibition at 1 µM: 5.5%

## CC(C)(C)c1ccc(C(=O)OCC(C)(O)c2cc3cc([N+](=O)[O-])c(C(F)(F)F)cc3[nH]2)cc1 (stereo not drawn) [Compound 80]
[1]
  IC50: 6400 nM
[2]
  inhibition at 1 µM: -24.9%

## OC1(c2cc3cc(Cl)c(C(F)(F)F)cc3[nH]2)CCN(Cc2ccccc2)CC1 [Compound 22]
[1]
  IC50: > 9600 nM
[2]; read-out: IC50 (nM), Androgen Receptor Binding (Rat Cytosol)
  IC50: > 7700 nM

## CC(O)(SC1CCCCC1)c1cc2cc([N+](=O)[O-])c(C(F)(F)F)cc2[nH]1 (racemic) [Compound 256]
[1]
  IC50: 2650 nM

## CC(O)(CSc1ccc(Cl)cc1)c1cc2ccccc2[nH]1 (stereo not drawn) [Compound 89]
[1]
  IC50: > 9600 nM

## CCSCC(C)(O)c1cc2cc(Cl)c(C(F)(F)F)cc2[nH]1 (stereo not drawn) [Compound 152]
[3]
  inhibition at 3 µM: 39%
  IC50: 108 nM
[4]
  active / inactive: inhibition of testosterone-enhanced prostate weight: inactive
[2]; Concentration 3000 nM
  inhibition at 3 µM: 97%

## CC(O)(Sc1ccc(Cl)cc1)c1cc2cc([N+](=O)[O-])c(C(F)(F)F)cc2[nH]1 (racemic) [Compound 259]
[1]
  IC50: 915 nM

## CC(O)(C[S+]([O-])c1ccc(F)cc1)c1cc2cc(Cl)c(C(F)(F)F)cc2[nH]1 (stereo not drawn) [Compound 113]
[1]
  IC50: 5100 nM
[4]
  active / inactive: inhibition of testosterone-enhanced prostate weight: inactive

## CC(O)(SC1CCCCC1)c1cc2cc(C#N)c(C(F)(F)F)cc2[nH]1 (racemic) [Compound 257]
[1]
  IC50: 5150 nM

## CC(O)(CSc1ccc([N+](=O)[O-])cc1)c1cc2cc([N+](=O)[O-])c(C(F)(F)F)cc2[nH]1 (stereo not drawn) [Compound 103]
[1]
  IC50: 1650 nM

## CCC(O)(CSCC(F)(F)F)c1cc2cc(Cl)c(C(F)(F)F)cc2[nH]1 (stereo not drawn) [Compound 192]
[5]
  inhibition at 3 µM: 89%
  % Activity, L929 androgen receptor functional assay: 8%
[3]
  inhibition at 3 µM: 86%
  IC50: 82 nM
[4]
  active / inactive: inhibition of testosterone-enhanced prostate weight: active

## CCSCC(C)(O)c1cc2cc(F)c(C(F)(F)F)cc2[nH]1 (stereo not drawn) [Compound 159]
[5]
  % Activity, L929 androgen receptor functional assay: 2%
[3]
  IC50: 240 nM
[4]
  active / inactive: inhibition of testosterone-enhanced prostate weight: active

## CCSCC(C)(O)c1cc2cc(C#N)c(C(F)(F)F)cc2n1C (stereo not drawn) [Compound 236]
[5]
  inhibition at 3 µM: 103%
  % Activity, L929 androgen receptor functional assay: 2%
[5]; antagonist testing with R1881
  IC50: 821 nM
[3]
  inhibition at 3 µM: 83%
  IC50: 105 nM
[4]
  active / inactive: inhibition of testosterone-enhanced prostate weight: active

## CCCS(=O)(=O)CC(C)(O)c1cc2cc([N+](=O)[O-])c(C(F)(F)F)cc2[nH]1 (stereo not drawn) [Compound 177]
[5]
  inhibition at 3 µM: 89%
  % Activity, L929 androgen receptor functional assay: 2%
[3]
  inhibition at 3 µM: 90%
  IC50: 88 nM
[4]
  active / inactive: inhibition of testosterone-enhanced prostate weight: active
